Experimental data reported in US11427783B2, “Perfuming compositions” (Firmenich SA, priority 2016, dated 2022).
Like-named read-outs stand apart in the source and are kept apart here.

How the values were obtained:
[1] = Volatility of perfuming compounds in air; type: physicochemical
[2] = Log P (n-octanol/water) of perfuming compounds
[3] = Table 8, perfuming compounds having a sweet note
[4] = Table 9, perfuming compounds having a gourmand note
[5] = Table 10, perfuming compounds having a woody note
[6] = Table 6, perfuming compounds having a fruity note
[7] = perfuming compounds having a fruity note (Table 6)
[8] = n-octanol/water, perfuming compounds having a fruity note (Table 6)
[9] = Table 5, perfuming compounds having a green note

Compound: CC/C=C\CC1=C(C)CCC1=O
- Volatility (μg/l air) [1, 3]: 56.72 μg/l air
- Volatility (μg/l air) [1, 4]: 56.72 μg/l air
- logP (physchem; n-octanol/water): 2.61
- Log P (n-octanol/water) [2, 4]: 2.61

Compound: CC(=O)CCC1=C(C)CCCC1(C)C
- Volatility (μg/l air) [1, 3]: 63.61 μg/l air
- Volatility (μg/l air) [1, 5]: 63.61 μg/l air
- logP (physchem; n-octanol/water): 3.99
- Log P (n-octanol/water) [2, 5]: 3.99

Compound: COc1cc(C=O)ccc1OC(=O)C(C)C
- Volatility (μg/l air) [1, 6]: 1.01 μg/l air
- Volatility (μg/l air) [1, 3]: 1.01 μg/l air
- Volatility (μg/l air) [1, 4]: 1.01 μg/l air
- logP (physchem; n-octanol/water): 1.9
- Log P (n-octanol/water) [2, 3]: 1.90
- Log P (n-octanol/water) [2, 4]: 1.90

Compound: CCC(=O)/C=C/C1=C(C)CCCC1(C)C
- Volatility (μg/l air) [1, 3]: 15.81 μg/l air
- Volatility (μg/l air) [1, 4]: 15.81 μg/l air
- logP (physchem; n-octanol/water): 4.47
- Log P (n-octanol/water) [2, 4]: 4.47

Compound: C/C=C/C(=O)C1=C(C)CCCC1(C)C
- Volatility (μg/l air) [1, 6]: 81.66 μg/l air
- Volatility (μg/l air) [1, 5]: 81.66 μg/l air
- logP (physchem; n-octanol/water): 3.63
- Log P (n-octanol/water) [2, 5]: 3.63

Compound: CC1(C)[C@@H]2CC[C@@]1(C)C(=O)C2
- Volatility [1, 7]: 555.04 μg/l air
- Log P (n-octanol/water) [2, 8]: 2.50

Compound: CC1(C)C2C[C@H]3CCC(=O)C=C3[C@@H]1C2
- Volatility (μg/l air) [1, 5]: 4.86 μg/l air
- Log P (n-octanol/water) [2, 5]: 3.00

Compound: CCCC(C)=CCOC(C)=O (mixture of isomers)
- Volatility [1, 9]: 4131.05 μg/l air
- Volatility [1, 7]: 4131.05 μg/l air
- Log P (n-octanol/water) [2, 9]: 3.11
- Log P (n-octanol/water) [2, 8]: 3.11

Compound: CC(=O)OCC=C(C)CCC=C(C)C (mixture of isomers) [GERANYL ACETATE (A) + NERYL ACETATE (B)]
- Volatility [1, 9]: 85.23 μg/l air
- Log P (n-octanol/water) [2, 9]: 3.99

Compound: C/C=C/C(=O)[C@@H]1[C@@H](C)C=CCC1(C)C (racemic)
- Volatility (μg/l air) [1, 3]: 143.53 μg/l air
- Volatility (μg/l air) [1, 4]: 143.53 μg/l air
- logP (physchem; n-octanol/water): 4.13
- Log P (n-octanol/water) [2, 4]: 4.13

Compound: CC1CCC2(O1)C(C)(C)CCCC2(C)O (racemic)
- Volatility (μg/l air) [1, 5]: 84.04 μg/l air
- Log P (n-octanol/water) [2, 5]: 3.51

Compound: CC1CC(C)(c2ccccc2)CO1 (racemic)
- logP (physchem; n-octanol/water): 3.02
- Log P (n-octanol/water) [2, 8]: 3.02

Compound: C=C(C)CC(C)OC(=O)C(C)C (racemic)
- Volatility (μg/l air) [1, 3]: 9902.98 μg/l air
- Volatility (μg/l air) [1, 4]: 9902.98 μg/l air
- logP (physchem; n-octanol/water): 3.57
- Log P (n-octanol/water) [2, 3]: 3.57
- Log P (n-octanol/water) [2, 4]: 3.57

Compound: CC1=C[C@H](C)[C@H]2[C@H](CCC(C)(C)[C@H]2O)C1 (racemic)
- logP (physchem; n-octanol/water): 5.24
- Log P (n-octanol/water) [2, 6]: 5.24

Compound: C/C=C/C(=O)C1C(C)=CCCC1(C)C (racemic)
- Volatility (μg/l air) [1, 6]: 113.31 μg/l air
- logP (physchem; n-octanol/water): 3.65
- Log P (n-octanol/water) [2, 6]: 3.65
- Log P (n-octanol/water) [2, 3]: 3.65
- Log P (n-octanol/water) [2, 5]: 3.65

Compound: CC(=O)C=CC1C(C)CCC(C)C1(C)C (racemic)
- Volatility (μg/l air) [1, 5]: 20.50 μg/l air
- Log P (n-octanol/water) [2, 5]: 4.62

Compound: C=C(C)CC(C(C)=O)C(=O)OCC (racemic)
- logP (physchem; n-octanol/water): 2.15
- Log P (n-octanol/water) [2, 8]: 2.15

Compound: CC(=O)OC(c1ccccc1)C(Cl)(Cl)Cl (racemic) [(+−)-2,2,2-TRICHLORO-1-PHENYLETHYL ACETATE]
- logP (physchem; n-octanol/water): 3.2
- Log P (n-octanol/water) [2]: 3.20

Compound: CCCCCC1CCCC1=O (racemic) [(+−)-2-pentylcyclopentanone]
- Volatility (μg/l air) [1, 3]: 560.22 μg/l air
- Volatility (μg/l air) [1, 4]: 560.22 μg/l air
- logP (physchem; n-octanol/water): 3.62
- Log P (n-octanol/water) [2, 3]: 3.62
- Log P (n-octanol/water) [2, 4]: 3.62

Compound: CCCC(S)CCOC(C)=O (racemic) [(+−)-3-mercaptohexyl acetate]
- logP (physchem; n-octanol/water): 2.64
- Log P (n-octanol/water) [2, 8]: 2.64

Compound: CC1CCC(=O)O1 (racemic) [(+−)-4-PENTANOLIDE]
- logP (physchem): -0.12
- Log P (n-octanol/water) ([2]; Table 7, citrus note): −0.12

Compound: CCCCCCCC1CCCC(=O)O1 (racemic) [(+−)-6-heptyltetrahydro-2H-pyran-2-one]
- Volatility (μg/l air) [1, 6]: 0.90 μg/l air
- Volatility (μg/l air) [1, 3]: 0.90 μg/l air
- Volatility (μg/l air) [1, 4]: 0.90 μg/l air
- logP (physchem; n-octanol/water): 3.42
- Log P (n-octanol/water) [2, 3]: 3.42
- Log P (n-octanol/water) [2, 4]: 3.42

Compound: CCCCCC1CCCC(=O)O1 (racemic) [(+−)-6-pentyltetrahydro-2H-pyran-2-one]
- Volatility (μg/l air) [1, 6]: 9.61 μg/l air
- Volatility (μg/l air) [1, 3]: 9.61 μg/l air
- Volatility (μg/l air) [1, 4]: 9.61 μg/l air
- logP (physchem; n-octanol/water): 2.22
- Log P (n-octanol/water) [2, 3]: 2.22
- Log P (n-octanol/water) [2, 4]: 2.22

Compound: CCCC1CCCC(=O)O1 (racemic) [(+−)-6-propyltetrahydro-2H-pyran-2-one]
- logP (physchem; n-octanol/water): 1.47
- Log P (n-octanol/water) ([2]; Table 7, citrus note): 1.47

Compound: COC1(C)CCC23CC1C(C)(C)C2CCC3C (racemic) [(+−)-8-methoxycedrane]
- Volatility (μg/l air) [1, 5]: 42.22 μg/l air
- Log P (n-octanol/water) [2, 5]: 7.59

Compound: CCOC(=O)C(C)CC (racemic) [(+−)-ethyl 2-methylbutanoate]
- logP (physchem; n-octanol/water): 2.58
- Log P (n-octanol/water) [2, 8]: 2.58

Compound: CCCCCC1C(=O)CCC1CC(=O)OC (single isomer, unassigned; (+))
- Volatility (μg/l air) [1, 5]: 1.71 μg/l air
- Log P (n-octanol/water) [2, 5]: 2.95

Compound: CC(=O)OC(C)CCC=C(C)CCC=C(C)C (centres unmarked) [1,5,9-TRIMETHYL-4,8-DECADIENYL ACETATE]
- logP (physchem; n-octanol/water): 5.28
- Log P (n-octanol/water) [2, 6]: 5.28

Compound: C=CCCC(=O)C1=CCCC(C)(C)C1 [1-(5,5-dimethyl-1-cyclohexen-1-yl)-4-penten-1-one]
- logP (physchem; n-octanol/water): 3.89
- Log P (n-octanol/water) [2, 6]: 3.89

Compound: O=C(Cc1ccccc1)OCCc1ccccc1 [2-PHENYLETHYL PHENYLACETATE]
- logP (physchem): 3.59
- Log P (n-octanol/water) ([2]; Table 7, citrus note): 3.59
- Log P (n-octanol/water) [2, 3]: 3.59
- Log P (n-octanol/water) [2, 4]: 3.59
